# In patent US11458189B2, “Cytoprotective drugs” (BALMES TRANSPLANTATION, priority 2017, dated 2022):
# Starred links: 1 amine or outer side, 2 acyl side, 3 side chain; linkers in the order of their positions; H or OH if unused. Positions of bridges follow the written chain, without caps; N, C: chain ends. Non-standard residues stand in square brackets, D forms with d. Residues, ends and D or L forms follow the SMILES beside them. ξ: configuration not given here. *: point of attachment. hTyr(3S-OH,4S-OH,3'-OSO3H) = N[C@H](C(=O)O)[C@H](O)[C@@H](O)c1ccc(O)c(OS(=O)(=O)O)c1; pTerphenylCO(4''-OnC5H11) = CCCCCOc1ccc(-c2ccc(-c3ccc(C(=O)*)cc3)cc2)cc1; Orn(4R-OH,5R-OH) = O=C([C@H](C[C@@H](O)[C@@H](O)N[*:3])N[*:1])[*:2]; hTyr(3S-OH,4S-OH) = N[C@H](C(=O)O)[C@H](O)[C@@H](O)c1ccc(O)cc1; Pro(3S-OH,4S-Me) = C[C@H]1CN[C@H](C(=O)O)[C@H]1O; X1 = CCCCCOc1ccc(-c2cc(-c3ccc(C(=O)*)cc3)no2)cc1; Gln(3R-OH) = NC(=O)C[C@@H](O)[C@H](N)C(=O)O; ξPro(4R-OH) = O=C(O)C1C[C@@H](O)CN1; Hyp = O=C(O)[C@@H]1C[C@@H](O)CN1
# System: Bovine Brain Microvascular Endothelial Cells (BBMEC)
# Test: Oxygen and glucose deprivation followed by replenishment, cell survival (calcein AM), BBMEC
# Type: cell-based
# Experimental: Anidulafungin and micafungin were tested on Human Renal Glomerular Endothelial Cells (HRGEC, Innoprot P10665), on Human Renal Proximal Tubular Epithelial Cells (HRPTEpiC, Innoprot P10662), on Human Astrocytes (HA, caltag SC-1800), on Human Cardiac Microvascular Endothelial Cells (HCMEC, Caltag SC-6000), on Human Hepatic Sinusoidal Endothelial Cells (HHSEC, Caltag SC-5000), on Rat Primary Kidney Glomerular Endothelial cells (Cellbiologics, RN-6014G) and on Bovine Brain Microvascular Endothelial Cells (BBMEC, Caltag SC-B100).
# In a first phase, these isolated, purified and cryopreserved cells are thawed and multiplied according to the supplier's recommendations in T75 or T175 flasks pre-coated with 2 μg of fibronectin/[…] (CORNING) for HRGEC, HCMEC, HHSEC and BBMEC, or 2 μg poly-L-lysin/cm^2 (Caltag SC-0403) for HRPTEpiC and HA, or 15 mL/flask 175 cm^2 gelatin-based solution (Cellbiologics) in the presence of endothelial cell supplemented growth medium ECM (P60104, INNOPROT, Caltag, SC-1001) for HRGEC, HCMEC, HHSEC, RPKGEC or BBMEC, or astrocyte cell supplemented growth medium AM (Caltag SC-1801) for HA or epithelial cell supplemented growth medium EpiCM (P60106, INNOPROT) for HRPTEpiC, at 37° C. under 5% CO2 and saturated humidity until their confluency. They are then harvested by trypsinization according to the method described by the supplier for exactly 5 minutes and then reseeded in new flasks a maximum of three times.
# To carry out the oxygen and glucose deprivation test followed by their replenishment, the cells will be seeded in 96-well black plates with transparent flat bottom (GREINER). Once a sufficient number of cells has been obtained to allow seeding of 2000 to 15000 cells per well of 96-well plates depending on the cell type, the cells are seeded in these 96-well plates previously coated with an extracellular matrix as listed above for the flasks. The cells are cultured for 5 to 8 days according to the cell type, in the presence of the same growth medium as in the flask as described above except for HRGEC and HRPTEpiC for which DMEM (DUTSCHER) with 1 g/L of supplemented glucose is used, at 37° C. under 5% CO2 and saturated humidity to obtain confluency.
# On the first day of oxygen and glucose deprivation, (5th, 6th, 7th or 8th day of culture), the culture conditions are drastically changed. The medium of all plates is removed and replaced by DMEM (DUTSCHER) medium without glucose and supplemented only with 1% penicillin-streptomycin (DUTSCHER). Anidulafungin or micafungin dissolved in dimethyl sulfoxide (DMSO) is then added to each well at the desired concentration, resulting in a maximum of 1% DMSO, and the plates are placed under hypoxia at <1% 02 and 5% CO2 at 37° C. for 24 hours of culture. Each compound was tested in a concentration range.
# After 24 hours, the growth medium is changed and replaced by a richer medium, DMEM (DUTSCHER) at 1 g/L glucose and 2% FBS (INNOPROT) and 1% penicillin-streptomycin (DUTSCHER). These media will have been pre-equilibrated at 37° C. in advance. The cells are then returned to culture at 37° C. under 20% 02 and 5% CO2 for 22h.
# After 22 hours of reoxygenation, the potential protective effect of anidulafungin or micafungin is measured by a cell viability test using calcein AM (CORNING), which is a dye substrate. The calcein AM can easily cross the cell membrane of the viable cells. The AM ester groups mask the part of the molecule that chelates calcium. Once inside the cells, the (non-fluorescent) calcein AM is hydrolyzed to (fluorescent) calcein by endogenous esterases. The resulting calcein molecule binds to calcium inside the cell and remains trapped inside the cell. These molecules emit strong green fluorescence when subjected to […] of a particular wavelength (495 nm). Since dead cells lack esterase activity, only living cells are labelled.
# This cell viability test is performed in two steps. […]
# [1] = [Anidulafungin] log μM 0.1760913
# [2] = [Anidulafungin] log μM −0.1249387
# [3] = [Anidulafungin] log μM −0.30103
# [4] = [Anidulafungin] log μM −0.5228788
compound,measurement,setting,value
"CCCCCOc1ccc(-c2cc(-c3ccc(C(=O)N[C@H]4C[C@@H](O)[C@@H](O)NC(=O)[C@@H]5[C@@H](O)[C@@H](C)CN5C(=O)[C@H]([C@H](O)CC(N)=O)NC(=O)[C@H]([C@H](O)[C@@H](O)c5ccc(O)c(OS(=O)(=O)O)c5)NC(=O)[C@@H]5C[C@@H](O)CN5C(=O)[C@H]([C@@H](C)O)NC4=O)cc3)no2)cc1 [Micafungin, {5-[(1S,2S)-2-[(3S,6S,9S,11R,15S,18S,20R,21R,24S,25S,26S)-3-[(1R)-2-carbamoyl-1-hydroxyethyl]-11,20,21,25-tetrahydroxy-15-[(1R)-1-hydroxyethyl]-26-methyl-2,5,8,14,17,23-hexaoxo-18-[(4-{5-[4-(pentyloxy)phenyl]-1,2-oxazol-3-yl}benzene)amido]-1,4,7,13,16,22-hexaazatricyclo[22.3.0.0]heptacosan-6-yl]-1,2-dihydroxyethyl]-2-hydroxyphenyl}oxidanesulfonic acid] (X1-[Orn(4R-OH,5R-OH)]T[Hyp][hTyr(3S-OH,4S-OH,3'-OSO3H)][Gln(3R-OH)][Pro(3S-OH,4S-Me)]; lactam 1-C)",Globalfluo assay 1,[Micafungin] log μM 0,1369504 arbitrary units
same,Globalfluo assay 2,[Micafungin] log μM 0,1354112 arbitrary units
same,Globalfluo assay 3,[Micafungin] log μM 0,1230715 arbitrary units
same,Mean globalfluo,[Micafungin] log μM 0,1318110 arbitrary units
same,Survival rate (%),[Micafungin] log μM 0,23%
same,Globalfluo assay 1,[Micafungin] log μM 0.4771213,2106751 arbitrary units
same,Globalfluo assay 2,[Micafungin] log μM 0.4771213,1655153 arbitrary units
same,Globalfluo assay 3,[Micafungin] log μM 0.4771213,1618365 arbitrary units
same,Mean globalfluo,[Micafungin] log μM 0.4771213,1793423 arbitrary units
same,Survival rate (%),[Micafungin] log μM 0.4771213,46%
same,Globalfluo assay 1,[Micafungin] log μM 0.7781513,1732851 arbitrary units
same,Globalfluo assay 2,[Micafungin] log μM 0.7781513,1742799 arbitrary units
same,Globalfluo assay 3,[Micafungin] log μM 0.7781513,1796080 arbitrary units
same,Mean globalfluo,[Micafungin] log μM 0.7781513,1757243 arbitrary units
same,Survival rate (%),[Micafungin] log μM 0.7781513,44%
same,Globalfluo assay 1,[Micafungin] log μM 0.90309,3787727 arbitrary units
same,Globalfluo assay 2,[Micafungin] log μM 0.90309,1942995 arbitrary units
same,Globalfluo assay 3,[Micafungin] log μM 0.90309,2729816 arbitrary units
same,Mean globalfluo,[Micafungin] log μM 0.90309,2820179 arbitrary units
same,Survival rate (%),[Micafungin] log μM 0.90309,96%
same,Globalfluo assay 1,[Micafungin] log μM 1,3519337 arbitrary units
same,Globalfluo assay 2,[Micafungin] log μM 1,3058877 arbitrary units
same,Globalfluo assay 3,[Micafungin] log μM 1,3179364 arbitrary units
same,Mean globalfluo,[Micafungin] log μM 1,3252526 arbitrary units
same,Survival rate (%),[Micafungin] log μM 1,117%
same,Globalfluo assay 1,[Micafungin] log μM 1.079181,2865371 arbitrary units
same,Globalfluo assay 2,[Micafungin] log μM 1.079181,2913567 arbitrary units
same,Globalfluo assay 3,[Micafungin] log μM 1.079181,3561196 arbitrary units
same,Mean globalfluo,[Micafungin] log μM 1.079181,3113378 arbitrary units
same,Survival rate (%),[Micafungin] log μM 1.079181,110%
same,Globalfluo assay 1,[Micafungin] log μM 1.176091,2994828 arbitrary units
same,Globalfluo assay 2,[Micafungin] log μM 1.176091,3496204 arbitrary units
same,Globalfluo assay 3,[Micafungin] log μM 1.176091,3106542 arbitrary units
same,Mean globalfluo,[Micafungin] log μM 1.176091,3199191 arbitrary units
same,Survival rate (%),[Micafungin] log μM 1.176091,114%
same,Globalfluo assay 1,[Micafungin] log μM 1.30103,3526958 arbitrary units
same,Globalfluo assay 2,[Micafungin] log μM 1.30103,3025877 arbitrary units
same,Globalfluo assay 3,[Micafungin] log μM 1.30103,3586726 arbitrary units
same,Mean globalfluo,[Micafungin] log μM 1.30103,3379854 arbitrary units
same,Survival rate (%),[Micafungin] log μM 1.30103,123%
same,Globalfluo assay 1,[Micafungin] log μM 1.477121,2506989 arbitrary units
same,Globalfluo assay 2,[Micafungin] log μM 1.477121,2361926 arbitrary units
same,Globalfluo assay 3,[Micafungin] log μM 1.477121,2557219 arbitrary units
same,Mean globalfluo,[Micafungin] log μM 1.477121,2475378 arbitrary units
same,Survival rate (%),[Micafungin] log μM 1.477121,79%
same,Globalfluo assay 1,[Micafungin] log μM −0.5228788,1907644 arbitrary units
same,Globalfluo assay 2,[Micafungin] log μM −0.5228788,993296 arbitrary units
same,Globalfluo assay 3,[Micafungin] log μM −0.5228788,1867099 arbitrary units
same,Mean globalfluo,[Micafungin] log μM −0.5228788,1589346 arbitrary units
same,Survival rate (%),[Micafungin] log μM −0.5228788,36%
same,Globalfluo assay 1,[Micafungin] log μM −1,1108584 arbitrary units
same,Globalfluo assay 2,[Micafungin] log μM −1,1249769 arbitrary units
same,Globalfluo assay 3,[Micafungin] log μM −1,1224251 arbitrary units
same,Mean globalfluo,[Micafungin] log μM −1,1194201 arbitrary units
same,Survival rate (%),[Micafungin] log μM −1,17%
same,Globalfluo assay 1,[Micafungin] log μM −2,1778372 arbitrary units
same,Globalfluo assay 2,[Micafungin] log μM −2,817005 arbitrary units
same,Globalfluo assay 3,[Micafungin] log μM −2,1173090 arbitrary units
same,Mean globalfluo,[Micafungin] log μM −2,1256156 arbitrary units
same,Survival rate (%),[Micafungin] log μM −2,20%
"CCCCCOc1ccc(-c2ccc(-c3ccc(C(=O)N[C@H]4C[C@@H](O)[C@@H](O)NC(=O)[C@@H]5[C@@H](O)[C@@H](C)CN5C(=O)[C@H]([C@@H](C)O)NC(=O)[C@H]([C@H](O)[C@@H](O)c5ccc(O)cc5)NC(=O)C5C[C@@H](O)CN5C(=O)[C@H]([C@@H](C)O)NC4=O)cc3)cc2)cc1 (stereo partly drawn) [Anidulafungin] ({pTerphenylCO(4''-OnC5H11)}-[Orn(4R-OH,5R-OH)]T[ξPro(4R-OH)][hTyr(3S-OH,4S-OH)]T[Pro(3S-OH,4S-Me)]; lactam 1-C)",Globalfluo assay 1,[Anidulafungin] log μM 0,941644 arbitrary units
same,Globalfluo assay 2,[Anidulafungin] log μM 0,1153883 arbitrary units
same,Globalfluo assay 3,[Anidulafungin] log μM 0,1374585 arbitrary units
same,Mean globalfluo,[Anidulafungin] log μM 0,1156704 arbitrary units
same,Survival rate (%),[Anidulafungin] log μM 0,30%
same,Globalfluo assay 1,[1],2348228 arbitrary units
same,Globalfluo assay 2,[1],1617378 arbitrary units
same,Globalfluo assay 3,[1],1887981 arbitrary units
same,Mean globalfluo,[1],1951196 arbitrary units
same,Survival rate (%),[1],77%
same,Globalfluo assay 1,[Anidulafungin] log μM 0.30103,2455048 arbitrary units
same,Globalfluo assay 2,[Anidulafungin] log μM 0.30103,2409886 arbitrary units
same,Globalfluo assay 3,[Anidulafungin] log μM 0.30103,4507112 arbitrary units
same,Mean globalfluo,[Anidulafungin] log μM 0.30103,3124015 arbitrary units
same,Survival rate (%),[Anidulafungin] log μM 0.30103,145%
same,Globalfluo assay 1,[Anidulafungin] log μM 0.60206,4710709 arbitrary units
same,Globalfluo assay 2,[Anidulafungin] log μM 0.60206,5014887 arbitrary units
same,Globalfluo assay 3,[Anidulafungin] log μM 0.60206,4901610 arbitrary units
same,Mean globalfluo,[Anidulafungin] log μM 0.60206,4875735 arbitrary units
same,Survival rate (%),[Anidulafungin] log μM 0.60206,248%
same,Globalfluo assay 1,[2],1165160 arbitrary units
same,Globalfluo assay 2,[2],919370 arbitrary units
same,Globalfluo assay 3,[2],944308 arbitrary units
same,Mean globalfluo,[2],1009613 arbitrary units
same,Survival rate (%),[2],22%
same,Globalfluo assay 1,[3],744687 arbitrary units
same,Globalfluo assay 2,[3],1045135 arbitrary units
same,Globalfluo assay 3,[3],678965 arbitrary units
same,Mean globalfluo,[3],822929 arbitrary units
same,Survival rate (%),[3],11%
same,Globalfluo assay 1,[4],800327 arbitrary units
same,Globalfluo assay 2,[4],708910 arbitrary units
same,Globalfluo assay 3,[4],845212 arbitrary units
same,Mean globalfluo,[4],784816 arbitrary units
same,Survival rate (%),[4],8%
same,Globalfluo assay 1,[Anidulafungin] log μM −1,649447 arbitrary units
same,Globalfluo assay 2,[Anidulafungin] log μM −1,1235676 arbitrary units
same,Globalfluo assay 3,[Anidulafungin] log μM −1,807779 arbitrary units
same,Mean globalfluo,[Anidulafungin] log μM −1,897634 arbitrary units
same,Survival rate (%),[Anidulafungin] log μM −1,15%
same,Globalfluo assay 1,[Anidulafungin] log μM −2,664396 arbitrary units
same,Globalfluo assay 2,[Anidulafungin] log μM −2,532817 arbitrary units
same,Globalfluo assay 3,[Anidulafungin] log μM −2,541230 arbitrary units
same,Mean globalfluo,[Anidulafungin] log μM −2,579481 arbitrary units
same,Survival rate (%),[Anidulafungin] log μM −2,−4%
